Results reported in patent US6962907B2, “Neurologically-active compounds” (The University of Sydney, priority 2001, dated 2005).
Entries after “also recorded” stand apart in the source; their conditions may differ.

Legend:
[1] = target: T1, GABAB (1b,2) receptor (Homo sapiens, UniProt Q9UBS5); test: Two-electrode voltage clamp at GABAB (1b,2) receptors co-expressed with GIRK1 and GIRK4 in Xenopus oocytes; format: cell-based; conditions: for effect as agonist or antagonist: 300 μM compound; for current response to compound in the presence of GABA: 300 μM compound + 1 μM GABA; for current response to compound in the presence of GABA / response to compound alone: FIG. 10(a); for response to compound alone: 300 μM compound alone
T1 construct: expressed in transfected cells; host or cells: Xenopus laevis oocytes injected with mRNA

[2] = target: T2, GABAB (1a,2) receptor (Homo sapiens, UniProt Q9UBS5); test: Two-electrode voltage clamp at GABAB (1a,2) receptors co-expressed with GIRK1 and GIRK4 in Xenopus oocytes; format: cell-based; conditions: for effect as agonist or antagonist: 300 μM compound; for current response to compound in the presence of GABA: 300 μM compound + 3 μM GABA; for current response to compound in the presence of GABA / response to compound alone: FIG. 10(b); for response to compound alone: 300 μM compound alone
T2 construct: expressed in transfected cells; host or cells: Xenopus laevis oocytes injected with mRNA
T2 sequence (Q9UBS5 15-961 limits assumed): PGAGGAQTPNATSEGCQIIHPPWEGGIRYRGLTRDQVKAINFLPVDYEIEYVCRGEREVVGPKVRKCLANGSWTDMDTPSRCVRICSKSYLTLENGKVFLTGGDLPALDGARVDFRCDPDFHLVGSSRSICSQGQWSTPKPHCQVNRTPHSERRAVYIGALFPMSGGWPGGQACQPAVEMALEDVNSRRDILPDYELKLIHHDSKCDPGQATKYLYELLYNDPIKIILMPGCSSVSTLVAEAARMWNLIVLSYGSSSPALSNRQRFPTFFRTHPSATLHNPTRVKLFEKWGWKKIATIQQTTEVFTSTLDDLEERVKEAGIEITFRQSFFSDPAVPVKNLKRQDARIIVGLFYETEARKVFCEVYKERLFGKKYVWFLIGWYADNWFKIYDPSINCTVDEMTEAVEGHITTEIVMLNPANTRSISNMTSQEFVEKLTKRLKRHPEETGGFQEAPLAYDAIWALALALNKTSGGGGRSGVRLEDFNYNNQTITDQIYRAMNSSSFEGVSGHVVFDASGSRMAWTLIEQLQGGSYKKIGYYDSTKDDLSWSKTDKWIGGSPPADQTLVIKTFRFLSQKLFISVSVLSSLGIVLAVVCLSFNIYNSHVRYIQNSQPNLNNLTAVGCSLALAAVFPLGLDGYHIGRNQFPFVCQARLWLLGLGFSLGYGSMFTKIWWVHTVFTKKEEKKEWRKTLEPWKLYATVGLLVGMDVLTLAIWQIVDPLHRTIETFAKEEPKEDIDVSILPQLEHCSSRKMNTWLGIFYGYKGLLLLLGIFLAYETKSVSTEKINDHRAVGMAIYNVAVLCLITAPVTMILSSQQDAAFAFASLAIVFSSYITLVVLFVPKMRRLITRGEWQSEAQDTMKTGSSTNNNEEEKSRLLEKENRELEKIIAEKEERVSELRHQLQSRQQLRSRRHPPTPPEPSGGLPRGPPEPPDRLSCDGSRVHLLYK
T2 sequence (O75899 42-941 partner): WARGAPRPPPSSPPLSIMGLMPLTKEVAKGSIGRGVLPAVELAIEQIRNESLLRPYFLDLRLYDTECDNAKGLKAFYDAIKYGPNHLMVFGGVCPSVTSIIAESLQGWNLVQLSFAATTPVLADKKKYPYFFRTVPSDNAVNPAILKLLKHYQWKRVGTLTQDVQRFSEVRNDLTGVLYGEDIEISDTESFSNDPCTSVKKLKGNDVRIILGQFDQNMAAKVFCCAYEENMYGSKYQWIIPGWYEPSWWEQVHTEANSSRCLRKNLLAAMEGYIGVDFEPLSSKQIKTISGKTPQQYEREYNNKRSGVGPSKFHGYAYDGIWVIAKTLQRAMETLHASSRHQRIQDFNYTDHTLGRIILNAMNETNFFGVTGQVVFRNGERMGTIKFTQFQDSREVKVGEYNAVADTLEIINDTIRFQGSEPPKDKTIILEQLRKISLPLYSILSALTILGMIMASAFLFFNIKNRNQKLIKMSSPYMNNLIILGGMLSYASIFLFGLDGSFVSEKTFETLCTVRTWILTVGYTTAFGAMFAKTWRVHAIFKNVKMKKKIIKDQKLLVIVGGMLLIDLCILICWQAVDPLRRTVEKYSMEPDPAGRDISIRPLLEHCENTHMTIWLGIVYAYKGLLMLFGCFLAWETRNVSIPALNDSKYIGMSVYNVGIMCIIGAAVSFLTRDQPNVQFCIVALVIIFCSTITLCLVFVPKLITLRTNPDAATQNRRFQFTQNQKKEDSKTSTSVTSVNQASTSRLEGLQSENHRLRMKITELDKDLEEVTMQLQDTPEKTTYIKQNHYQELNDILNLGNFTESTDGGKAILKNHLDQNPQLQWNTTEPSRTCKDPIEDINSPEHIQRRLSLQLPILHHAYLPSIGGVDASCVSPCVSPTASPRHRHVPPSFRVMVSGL

[3] = target: GABAC (ρ1) receptor (Homo sapiens, UniProt P24046); test: Two-electrode voltage clamp at GABAC (ρ1) receptors expressed in Xenopus oocytes; conditions: for current response to compound in the presence of GABA: 100 μM compound + 1 μM GABA; for current response to compound in the presence of GABA / response to compound alone: FIG. 11(a); for response to compound alone: 100 μM compound alone; for Hill coefficient (nH) for GABA in the presence of the antagonist / I/Imax, maximal GABA response maintained in the presence of the antagonist: (±)-cis 40 μM or (±)-trans 30 μM; for I/Imax, maximal GABA response maintained in the presence of the antagonist / type of antagonism: FIG. 12; for type of antagonism: parallel shift of the GABA dose-response curves; for inhibition at 100 µM: read-out: inhibition of the GABA response
Experimental: (§1) For example, ρ1 GABAC receptor subunit subcloned in ρ1 cDNA 1.1 and is linearised using the restriction enzyme Xbal . Following this, the mRNA is then prepared from the linearised ρ1 subunit using T7 polymerase. This genetic material is then injected into the Xenopus laevis oocytes and incubated for 2 to 9 days, to allow for the process of translation to occur. After this process the Xenopus laevis oocytes show expression of the receptor and ion channel assembly on the cell surface.
(§2) Female Xenopus laevis frogs were anaesthetised with tricaine (850 mg/500 mL) and a lobe of their ovaries surgically removed. […] Stage V-VI oocytes were collected and stored in Frog Ringer (ND96) wash solution (96 mM NaCI, 2 mM KCI, 1 mM MgCl2.6H20, 1.8 mM CaCl2.2H2O, 5 mM HEPES (hemi-Na salt), pH 7.5) supplemented with 2.5 mM sodium pyruvate, 0.5 mM theophylline, and 50 μg/mL gentamicin.
(§3) Micropipettes were prepared by the microprocessor-controlled vertical pipette puller (World Precision Instruments) and bevelled to a tip diameter of 10-20 μm. The micropipettes were filled with mineral oil to ensure the mRNA solution would be drawn up into the micropipette under negative pressure. A Nanoject injector (World Precision Instruments) was used to deliver GABAA, GABAB or GABAC mRNA (50 nL) into the cytoplasm of the Xenopus oocytes. After injection with the appropriate mRNA, the oocytes were placed in a storage solution of ND96 wash solution supplemented with 2.5 mM sodium pyruvate, 0.5 mM theophylline and gentamicin (50 μg/mL) and stored on a slow speed rotator in an 18° C. controlled temperature incubator (Contherm, Petone, NZ). The storage solution was changed daily (or twice daily) and dead or unhealthy oocytes were removed to prolong the health of the remaining cells.
(§4) Prior to recording, 100 mM stock solutions of (±)-cis- and (±)-trans-3-ACPBPA were prepared using autoclaved MilliQ water and stored at −20° C. […] At the time the experiments were to be recorded, the stock solutions were diluted with ND96 wash solution for testing on GABAA and GABAC receptors or 45 mM K^+ solution (45 mM NaCI, 45 mM KCI, 1 mM MgCl2.6H2O, 1.8 mM CaCl2.2H2O, 5 mM HEPES (hemi-Na salt), pH 7.5 at 25° C.) for testing on GABAB receptors.
(§5) After 2 to 9 days of incubation, receptor activity using two-electrode voltage clamp recordings were acquired by means of a Geneclamp 500 amplifier (Axon Instruments Inc., Foster City, Calif., USA), a MacLab 2e recorder (AD Instruments, Sydney, Australia) and Chart™ v.3.6.3 for Macintosh (AD Instruments) to digitise the current and voltage signals.
(§6) The recording microelectrodes were prepared from borosilicate glass capillaries (1.2 mm i.d.×0.94 mm o.d.; Clark Electromedical Instruments, Pangbourne, UK) using a micropipette puller (World Precision Instruments). The microelectrodes (tip resistances 0.5-1.5 MΩ) were filled with 3 M potassium chloride and a microscope was used to direct the insertion of these microelectrodes into the oocyte positioned in the cell bath. The membrane potential of the oocyte was then voltage-clamped at −60 mV.
(§7) Oocytes with an adequate level of receptor expression (with maximal currents (I)≧50 nA) were used for subsequent recording. […] Oocytes were washed for 3-4 minutes between applications of drug doses to ensure for receptor recovery.

[4] = target: GABAC (ρ2) receptor (Homo sapiens, UniProt P28476); test: Two-electrode voltage clamp at GABAC (ρ2) receptors expressed in Xenopus oocytes; conditions: for current response to compound in the presence of GABA: 100 μM compound + 1 μM GABA; for current response to compound in the presence of GABA / response to compound alone: FIG. 11(b); for response to compound alone: 100 μM compound alone; for inhibition at 100 µM: read-out: inhibition of the GABA response
GABAC (ρ2) receptor, sequence (P28476 21-465): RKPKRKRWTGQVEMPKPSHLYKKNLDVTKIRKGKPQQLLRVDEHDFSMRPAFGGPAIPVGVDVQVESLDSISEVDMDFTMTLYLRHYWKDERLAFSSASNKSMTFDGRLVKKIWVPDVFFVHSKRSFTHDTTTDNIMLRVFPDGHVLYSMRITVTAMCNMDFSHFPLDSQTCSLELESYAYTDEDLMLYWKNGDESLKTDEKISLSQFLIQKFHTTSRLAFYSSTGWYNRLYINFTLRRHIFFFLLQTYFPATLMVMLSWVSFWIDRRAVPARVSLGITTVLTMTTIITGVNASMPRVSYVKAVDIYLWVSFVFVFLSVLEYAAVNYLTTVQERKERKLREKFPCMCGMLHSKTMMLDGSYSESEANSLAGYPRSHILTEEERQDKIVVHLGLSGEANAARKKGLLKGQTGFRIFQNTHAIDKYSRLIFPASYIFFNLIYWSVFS
Experimental: as §1, §2, §3, §4, §5, §6, §7

[5] = target: T3, GABAC (ρ3) receptor (Rattus norvegicus, UniProt P50573); test: Two-electrode voltage clamp at GABAC (ρ3) receptors expressed in Xenopus oocytes; conditions: for current response to compound in the presence of GABA: 100 μM compound + 10 μM GABA; for current response to compound in the presence of GABA / response to compound alone: FIG. 11(c); for response to compound alone: 100 μM compound alone; for inhibition at 100 µM: read-out: inhibition of the GABA response
T3 sequence (P50573 16-464): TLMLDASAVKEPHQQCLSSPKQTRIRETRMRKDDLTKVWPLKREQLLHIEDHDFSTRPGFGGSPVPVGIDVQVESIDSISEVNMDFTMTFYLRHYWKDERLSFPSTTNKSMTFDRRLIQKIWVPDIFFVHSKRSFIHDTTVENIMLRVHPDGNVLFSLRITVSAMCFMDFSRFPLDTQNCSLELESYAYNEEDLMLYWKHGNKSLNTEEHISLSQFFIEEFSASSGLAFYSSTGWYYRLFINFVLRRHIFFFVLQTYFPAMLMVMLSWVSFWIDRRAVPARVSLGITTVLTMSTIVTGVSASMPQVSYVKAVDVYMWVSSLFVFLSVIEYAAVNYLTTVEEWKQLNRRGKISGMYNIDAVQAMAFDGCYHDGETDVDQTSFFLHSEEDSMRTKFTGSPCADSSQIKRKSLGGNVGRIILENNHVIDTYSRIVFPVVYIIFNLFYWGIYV
Experimental: as §1, §2, §3, §4, §5, §6, §7

[6] = target: GABAA (α2β2γ2s) receptor (Homo sapiens, UniProt P47869+P47870); test: Two-electrode voltage clamp at GABAA (α2β2γ2s) receptors expressed in Xenopus oocytes; conditions: for effect as agonist or antagonist: 1 mM compound; for current response to compound in the presence of GABA: 1 mM compound + 3 μM GABA; for current response to compound in the presence of GABA / response to compound alone: FIG. 9; for response to compound alone: 1 mM compound alone
GABAA (α2β2γ2s) receptor, sequence (P47869 29-451): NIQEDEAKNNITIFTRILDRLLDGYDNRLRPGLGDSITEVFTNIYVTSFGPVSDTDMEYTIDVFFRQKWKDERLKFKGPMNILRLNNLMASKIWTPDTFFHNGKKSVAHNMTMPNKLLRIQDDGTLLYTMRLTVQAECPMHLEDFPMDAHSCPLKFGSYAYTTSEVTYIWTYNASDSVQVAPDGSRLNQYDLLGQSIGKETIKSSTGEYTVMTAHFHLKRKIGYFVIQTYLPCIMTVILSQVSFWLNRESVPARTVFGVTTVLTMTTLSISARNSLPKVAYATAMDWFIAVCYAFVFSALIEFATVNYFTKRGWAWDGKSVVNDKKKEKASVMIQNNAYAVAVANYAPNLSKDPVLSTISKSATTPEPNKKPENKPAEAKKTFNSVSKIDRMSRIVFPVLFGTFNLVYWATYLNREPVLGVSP
GABAA (α2β2γ2s) receptor, sequence (P47870 25-512 limits assumed): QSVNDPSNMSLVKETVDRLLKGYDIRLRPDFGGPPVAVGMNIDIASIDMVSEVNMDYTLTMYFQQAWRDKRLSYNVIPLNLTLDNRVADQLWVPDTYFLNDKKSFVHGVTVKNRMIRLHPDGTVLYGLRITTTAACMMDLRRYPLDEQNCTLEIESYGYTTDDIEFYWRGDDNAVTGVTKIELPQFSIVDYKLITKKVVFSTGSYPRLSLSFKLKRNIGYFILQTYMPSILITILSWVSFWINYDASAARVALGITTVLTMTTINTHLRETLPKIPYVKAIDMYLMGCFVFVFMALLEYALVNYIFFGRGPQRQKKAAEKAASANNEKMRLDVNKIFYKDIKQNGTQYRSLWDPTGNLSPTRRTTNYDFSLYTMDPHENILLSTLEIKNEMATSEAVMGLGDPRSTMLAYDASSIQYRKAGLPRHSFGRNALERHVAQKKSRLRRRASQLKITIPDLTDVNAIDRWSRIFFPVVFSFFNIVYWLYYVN
GABAA (α2β2γ2s) receptor, sequence (P18507 40-467 isoform P18507-1 partner limits assumed): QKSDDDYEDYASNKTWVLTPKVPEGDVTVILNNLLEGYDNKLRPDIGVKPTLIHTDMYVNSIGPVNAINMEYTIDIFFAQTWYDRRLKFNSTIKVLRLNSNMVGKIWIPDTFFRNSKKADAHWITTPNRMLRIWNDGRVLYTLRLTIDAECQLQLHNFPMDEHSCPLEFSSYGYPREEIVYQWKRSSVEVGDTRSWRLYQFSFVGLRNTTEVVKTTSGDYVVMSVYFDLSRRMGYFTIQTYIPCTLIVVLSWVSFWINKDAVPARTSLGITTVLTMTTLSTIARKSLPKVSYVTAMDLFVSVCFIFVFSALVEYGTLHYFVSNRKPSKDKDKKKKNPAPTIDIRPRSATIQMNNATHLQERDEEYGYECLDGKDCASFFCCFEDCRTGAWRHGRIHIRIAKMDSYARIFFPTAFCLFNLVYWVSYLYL
Experimental: as §1, §2, §3, §4, §5, §6, §7

[7] = target: GABAB receptor (Homo sapiens, UniProt Q9UBS5); test: Two-electrode voltage clamp at GABAB receptors (subtype not stated) expressed in Xenopus oocytes; conditions: for effect as agonists or antagonists: 300 μM compound; for inhibition at 1000 µM: read-out: inhibition of 1 μM GABA (weak antagonist effect)
GABAB receptor, sequence (Q9UBS5 20-961): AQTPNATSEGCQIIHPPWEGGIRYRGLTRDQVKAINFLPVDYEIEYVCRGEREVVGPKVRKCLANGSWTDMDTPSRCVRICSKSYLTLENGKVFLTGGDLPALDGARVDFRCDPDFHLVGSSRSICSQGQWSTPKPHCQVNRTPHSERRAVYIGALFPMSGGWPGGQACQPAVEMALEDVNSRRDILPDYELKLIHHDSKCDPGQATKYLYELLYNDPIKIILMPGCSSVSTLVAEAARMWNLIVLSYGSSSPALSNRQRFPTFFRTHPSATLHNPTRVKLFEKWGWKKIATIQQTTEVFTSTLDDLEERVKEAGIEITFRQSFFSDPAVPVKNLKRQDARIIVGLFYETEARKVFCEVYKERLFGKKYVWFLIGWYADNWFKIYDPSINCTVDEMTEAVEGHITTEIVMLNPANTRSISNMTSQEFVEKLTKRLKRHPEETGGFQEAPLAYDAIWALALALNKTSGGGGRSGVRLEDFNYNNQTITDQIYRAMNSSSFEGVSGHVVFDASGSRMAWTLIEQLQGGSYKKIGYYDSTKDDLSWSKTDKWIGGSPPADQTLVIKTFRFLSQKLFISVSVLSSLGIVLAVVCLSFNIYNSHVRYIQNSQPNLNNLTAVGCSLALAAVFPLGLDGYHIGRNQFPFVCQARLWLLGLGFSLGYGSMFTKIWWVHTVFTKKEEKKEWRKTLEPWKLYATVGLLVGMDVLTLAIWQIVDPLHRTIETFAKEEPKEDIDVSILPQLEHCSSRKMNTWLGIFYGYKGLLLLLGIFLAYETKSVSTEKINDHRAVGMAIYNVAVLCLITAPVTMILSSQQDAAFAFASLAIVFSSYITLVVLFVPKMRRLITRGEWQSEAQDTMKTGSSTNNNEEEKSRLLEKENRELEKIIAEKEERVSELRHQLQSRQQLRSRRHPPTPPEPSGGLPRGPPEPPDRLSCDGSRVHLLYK
GABAB receptor, sequence (O75899 42-941 partner): as the sequence (O75899 42-941 partner) above

[8] = target: GABAC receptors; conditions: Woodward et al, 1993; read-out: KB as antagonist at GABAC receptors; cited from earlier work

Structure (SMILES)	Kb [1]	effect as agonist or antagonist [1]	current response to compound in the presence of GABA [1]	response to compound alone [1]	Kb [2]	effect as agonist or antagonist [2]	current response to compound in the presence of GABA [2]	response to compound alone [2]	Kb [3]	antagonist activity in words [3]	current response to compound in the presence of GABA [3]	response to compound alone [3]	Hill coefficient (nH) for GABA in the presence of the antagonist [3]	I/Imax, maximal GABA response maintained in the presence of the antagonist [3]	type of antagonism [3]	inhibition at 100 µM [3]	antagonist activity in words [4]	current response to compound in the presence of GABA [4]	response to compound alone [4]	inhibition at 100 µM [4]	further results
CCCCP(=O)(O)[C@H]1CC[C@@H](N)C1 (racemic) [(±)-cis-3-ACPBPA, (±)-cis-(3-aminocyclopentanyl)butylphosphinic acid]	> 300 µM	did not act as an agonist or antagonist; also recorded: no apparent effect as an agonist or antagonist; also recorded: no effect as agonists or antagonists; also recorded: No effect	20 nA	no response was detected	> 300 µM	did not act as an agonist or antagonist; also recorded: no apparent effect as an agonist or antagonist; also recorded: no effect as agonists or antagonists; also recorded: No effect	405 nA	no response was detected	12.5 ± 1.2 µM	potent antagonists	2 nA	no recordable response	2.3±0.2	0.91±0.02	competitive antagonists	~100%	potent antagonists	4 nA	no detectable response	~100%	potency relative to (±)-trans-3-ACPBPA ([3]; ratio of estimated KB values): 3.5 times; antagonist activity in words [5]: potent antagonists; current response to compound in the presence of GABA [5]: 120 nA; response to compound alone [5]: no measurable response; inhibition at 100 µM [5]: 85%; effect as agonist or antagonist [6]: did not act as an agonist or antagonist; also recorded: no effect as an agonist or antagonist; also recorded: no effect as an agonist or an antagonist; also recorded: No effect; current response to compound in the presence of GABA [6]: 65 nA; response to compound alone [6]: no response was detected; Kb [7]: > 1 mM; effect as agonists or antagonists [7]: no effect as agonists or antagonists; inhibition at 1000 µM [7]: 10%
CCCCP(=O)(O)[C@@H]1CC[C@@H](N)C1 (racemic) [(±)-trans-3-ACPBPA, (±)-trans-(3-aminocyclopentanyl)butylphosphinic acid]	> 300 µM	did not act as an agonist or antagonist; also recorded: no apparent effect as an agonist or antagonist; also recorded: no effect as agonists or antagonists; also recorded: No effect	15 nA	no detectable response	> 300 µM	did not act as an agonist or antagonist; also recorded: no apparent effect as an agonist or antagonist; also recorded: no effect as agonists or antagonists; also recorded: No effect	407 nA	no detectable response	43.8 ± 5.1 µM	potent antagonists	34 nA	no detectable response	2.2±0.2	0.94±0.05	competitive antagonists	77%	potent antagonists	17 nA	no measurable response	32%	antagonist activity in words [5]: potent antagonists; current response to compound in the presence of GABA [5]: 455 nA; response to compound alone [5]: no visible response; inhibition at 100 µM [5]: 45%; effect as agonist or antagonist [6]: did not act as an agonist or antagonist; also recorded: no effect as an agonist or antagonist; also recorded: no effect as an agonist or an antagonist; also recorded: No effect; current response to compound in the presence of GABA [6]: 60 nA; response to compound alone [6]: no detectable response; Kb [7]: > 1 mM; effect as agonists or antagonists [7]: no effect as agonists or antagonists; inhibition at 1000 µM [7]: 10%
NCCCP(=O)(O)O [3-APA, 3-aminopropylphosphonic acid]																					Kb [8]: 1800 nM
NCCC[PH](=O)O [CGP27492, 3-aminopropylphosphinic acid]																					Kb [8]: 800 nM
